Square brackets hold non-standard residues; d marks the D form. Peptide text beside a SMILES is read from it. Nle = CCCC[C@H](N)C(=O)O; Orn = NCCC[C@H](N)C(=O)O
Each molecule was assayed against T1, NK-2 receptor (Oryctolagus cuniculus, UniProt P79218) (assay: Antagonism of NKA-induced contraction in isolated rabbit pulmonary artery). Settings: inhibition of the response to NKA (3 nM), 10⁻⁶M concentration of each compound.
T1 construct: This preparation is isolated rabbit pulmonary artery, in which tachykinins produce dose-related contraction; from tissue; host or cells: isolated rabbit pulmonary artery
T1 sequence (P79218 1-384): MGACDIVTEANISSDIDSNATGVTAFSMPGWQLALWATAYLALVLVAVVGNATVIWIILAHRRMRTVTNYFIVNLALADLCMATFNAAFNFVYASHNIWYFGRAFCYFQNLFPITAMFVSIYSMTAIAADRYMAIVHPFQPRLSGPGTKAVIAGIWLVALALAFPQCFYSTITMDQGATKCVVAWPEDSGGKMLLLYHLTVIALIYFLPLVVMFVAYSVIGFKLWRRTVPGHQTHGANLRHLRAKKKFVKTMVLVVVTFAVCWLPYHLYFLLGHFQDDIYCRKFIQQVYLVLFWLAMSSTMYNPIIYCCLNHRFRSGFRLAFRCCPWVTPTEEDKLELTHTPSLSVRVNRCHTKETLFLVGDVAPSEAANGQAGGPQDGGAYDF
Format: cell-based
Experimental: The ability of the peptides described in the present invention to interact with the neurokinin A receptor as agonists or antagonists was evaluated in an in-vitro study using a preparation in which the biological response produced by tachykinins and related peptides is determined exclusively from the neurokinin A receptor (NK-2 receptor). This preparation is isolated rabbit pulmonary artery, in which tachykinins produce dose-related contraction (Rovero et al., Neuropeptides, 1989, 13: 263-270). The activity of the peptides in this preparation was determined using a concentration of NKA (3 nM) that produces a response equivalent to 45% of the maximum. The peptides that are the subject of the present application were added to the preparation in increasing concentrations and their activity evaluated in terms of inhibition of the response to NKA.
Antagonist biological activity on the NK-2 receptor in isolated rabbit pulmonary artery of the peptides described.

Compound | inhibition [%]
CC(C)[C@H](NC(=O)[C@@H](Cc1c[nH]c2ccccc12)NC(=O)[C@H](Cc1ccc(O)cc1)NC(=O)[C@@H](N)CC(=O)O)C(=O)N[C@H](Cc1c[nH]c2ccccc12)C(=O)N[C@H](Cc1c[nH]c2ccccc12)C(=O)N[C@@H](C)C(N)=O [H-Asp-Tyr-DTrp-Val-DTrp-DTrp-Ala-NH₂] (H-DY[dW]V[dW][dW]A-NH2) | 100
CC(C)C[C@H](NC(=O)[C@@H](Cc1c[nH]c2ccccc12)NC(=O)[C@@H](Cc1c[nH]c2ccccc12)NC(=O)[C@@H](NC(=O)[C@@H](Cc1c[nH]c2ccccc12)NC(=O)[C@H](Cc1ccc(O)cc1)NC(=O)[C@@H](N)CC(=O)O)C(C)C)C(N)=O [H-Asp-Tyr-DTrp-Val-DTrp-DTrp-Leu-NH₂] (H-DY[dW]V[dW][dW]L-NH2) | 100
CC(C)[C@H](NC(=O)[C@@H](Cc1c[nH]c2ccccc12)NC(=O)[C@H](Cc1ccc(O)cc1)NC(=O)[C@@H](N)CC(=O)O)C(=O)N[C@H](Cc1c[nH]c2ccccc12)C(=O)N[C@H](Cc1c[nH]c2ccccc12)C(=O)N[C@@H](CCCCN)C(N)=O [H-Asp-Tyr-DTrp-Val-DTrp-DTrp-Lys-NH₂] (H-DY[dW]V[dW][dW]K-NH2) | 100
CC(C)[C@@H]1NC(=O)[C@@H](Cc2c[nH]c3ccccc23)NC(=O)[C@H](Cc2ccc(O)cc2)NC(=O)[C@H](CC(=O)O)NC(=O)[C@H](CCCCN)NC(=O)[C@@H](Cc2c[nH]c3ccccc23)NC(=O)[C@@H](Cc2c[nH]c3ccccc23)NC1=O [Cyclo[AspTyrDTrpValDTrpDTrpLys], cyclo[AspTyrDTrpValDTrpDTrpLys]] (cyclo(DY[dW]V[dW][dW]K)) | 95
CC(C)[C@H](NC(=O)[C@@H](Cc1c[nH]c2ccccc12)NC(=O)[C@H](Cc1ccc(O)cc1)NC(=O)[C@@H](N)CC(=O)O)C(=O)N[C@H](Cc1c[nH]c2ccccc12)C(=O)N[C@H](Cc1c[nH]c2ccccc12)C(=O)NCC(N)=O [H-Asp-Tyr-DTrp-Val-DTrp-DTrp-Gly-NH₂] (H-DY[dW]V[dW][dW]G-NH2) | 100
CC(C)[C@H](NC(=O)[C@@H](Cc1c[nH]c2ccccc12)NC(=O)[C@H](Cc1ccc(O)cc1)NC(=O)[C@@H](N)CC(=O)O)C(=O)N[C@H](Cc1c[nH]c2ccccc12)C(=O)N[C@H](Cc1c[nH]c2ccccc12)C(=O)N[C@@H](CCCN)C(N)=O [H-Asp-Tyr-DTrp-Val-DTrp-DTrp-Orn-NH₂] (H-DY[dW]V[dW][dW][Orn]-NH2) | 100
CC(C)[C@@H]1NC(=O)[C@@H](Cc2c[nH]c3ccccc23)NC(=O)[C@H](Cc2ccc(O)cc2)NC(=O)[C@H](CC(=O)O)NC(=O)[C@H](CCCNC(=N)N)NC(=O)[C@@H](Cc2c[nH]c3ccccc23)NC(=O)[C@@H](Cc2c[nH]c3ccccc23)NC1=O [Cyclo[AspTyrDTrpValDTrpDTrpArg], cyclo[AspTyrDTrpValDTrpDTrpArg]] (cyclo(DY[dW]V[dW][dW]R)) | 95
CCCC[C@H](NC(=O)[C@@H](Cc1c[nH]c2ccccc12)NC(=O)[C@@H](Cc1c[nH]c2ccccc12)NC(=O)[C@@H](NC(=O)[C@@H](Cc1c[nH]c2ccccc12)NC(=O)[C@H](Cc1ccc(O)cc1)NC(=O)[C@@H](N)CC(=O)O)C(C)C)C(N)=O [H-Asp-Tyr-DTrp-Val-DTrp-DTrp-Nle-NH₂] (H-DY[dW]V[dW][dW][Nle]-NH2) | 100
CC(C)[C@H](NC(=O)[C@@H](Cc1c[nH]c2ccccc12)NC(=O)[C@H](Cc1ccc(O)cc1)NC(=O)[C@@H](N)CC(=O)O)C(=O)N[C@H](Cc1c[nH]c2ccccc12)C(=O)N[C@H](Cc1c[nH]c2ccccc12)C(=O)N[C@@H](CCC(=O)O)C(N)=O [H-Asp-Tyr-DTrp-Val-DTrp-DTrp-Glu-NH₂] (H-DY[dW]V[dW][dW]E-NH2) | 100

— patent EP0541662B1, “SYNTHETIC PEPTIDES THAT ANTAGONIZE NEUROKININ A, THEIR SALTS AND THEIR MANUFACTURING PROCESSES” (A. MENARINI INDUSTRIE FARMACEUTICHE RIUNITE S.R.L., priority 1990, dated 1992)
